Data from patent publication US20200289474A1, “METHODS OF TREATING PAIN WITH A THIAZOLINE ANTI-HYPERALGESIC” (priority 2019, published 2020).

Key:
Format in all cases: in vivo, rat
[1] = system: STZ-induced mechanical allodynia; assay: STZ-induced diabetic rats, subsequent study
Experimental: (§1) Experiments were conducted to determine the effect of Compound 1 in streptozotocin (STZ)-induced diabetic rats. In the first experiment, after obtaining mechanical threshold baselines, STZ (50 mg/kg IV) was administered (Day −7). Two days later, blood glucose levels were measured and animals that were hyperglycemic (>250 mg/dL) continued in the study. On Day 0 the baseline for mechanical thresholds prior to dosing with test articles was established for the rats. Compound 1 (10, 30, and 100 mg/kg PO), gabapentin (100 mg/kg PO) or vehicle was then administered daily for 5 days. On Day 0 mechanical thresholds were obtained at 1, 3, and 6 h post-dose. On Day 1 mechanical thresholds were measured immediately prior to dosing and then 3 h post-dose. The same regimen was followed on Day 3.
In a subsequent study, the same STZ paradigm was followed. However, in addition to the 100 mg/kg Compound 1 group, two additional cohorts received the Compound 1 100 mg/kg dose split into two or three doses per day with 50 mg/kg BID and 33 mg/kg TID. In addition to the gabapentin (100 mg/kg PO) group, a separate cohort received duloxetine (30 mg/kg PO). Additionally, in this study mechanical threshold testing was implemented every day immediately prior to dosing and 2 h post-dose for 7 days.

[2] = system: STZ-induced mechanical allodynia; assay: streptozotocin (STZ)-induced diabetic rats, first experiment; conditions: gabapentin 100 mg/kg PO daily; 1 h post-dose Day 0 and all time points thereafter
Experimental: FIG. 14 illustrates non-limiting reversal of mechanical hypersensitivity by Compound 1 in a diabetic neuropathy model, in accordance with various embodiments. Streptozotocin (STZ) destroys insulin-producing cells and generates a diabetic phenotype in […]. Animals were dosed with STZ on day −7. By day 0 animals are hyperglycemic and hyperalgesic (day 0 BL).
as §1

[3] = system: incision-induced hyperalgesia; assay: Brennan protocol, treatment paradigm (established hyperalgesia); conditions: morphine 3 mg/kg SC
Text: Two incisional pain models were used to assess Compound 1 effects on hyperalgesia. The first model is referred to as the Brennan model in which, under anesthesia, a 1 cm longitudinal incision to the skin and underlying fascia of a rat hindpaw is made. The second is a variation but is a more invasive procedure in which the skin and muscle are spread apart using forceps which creates a longer-lasting hypersensitivity.
Using the Brennan protocol and a treatment paradigm in rat, Compound 1 (10 and 30 mg/kg PO), morphine (3 mg/kg SC) or vehicle were administered daily at 24 h post-incision, and again at 48 and 72 h post-incision. Mechanical thresholds were obtained at 1 h and 2 h post-dose in all cohorts on all days.

CNCC[C@H](Oc1cccc2ccccc12)c1cccs1 [duloxetine, reference compound]
reversal of allodynia ([1]; duloxetine 30 mg/kg PO): required successive doses for appreciable activity

NCC1(CC(=O)O)CCCCC1 [gabapentin, reference compound]
reversal of allodynia ([1]; gabapentin 100 mg/kg PO, throughout the study): robustly reversed the allodynia | reversal of allodynia (mechanical thresholds) [2]: significant reversal of allodynia

CN1CC[C@]23c4c5ccc(O)c4O[C@H]2[C@@H](O)C=C[C@H]3[C@H]1C5 [morphine]
mechanical threshold ([3]; Day 1, 1 h post-dose (baseline 35 g)): 45 g | analgesic effect ([3]; Day 1, 2 h post-dose): this effect waned | hyperalgesia ([3]; Day 2, 1 h): not hyperalgesic | hyperalgesia ([3]; Day 2, 2 h): mild hyperalgesia | mechanical threshold ([3]; Day 2 prior to dosing): < 15 g
